In PubChem BioAssay AID651717 (Broad Institute, 2012):

System: mESC Bmi1-luciferase reporter, firefly/renilla ratio, 24 h
Assay: Bmi1-luciferase reporter activators in mESC, dose response, esBAF inhibitor project, mouse embryonic stem cells, cherry-pick (AID 651717);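 further: luciferase knocked into Bmi1 locus with EF-1a renilla as cell number control; rising ratio signals esBAF inhibition which derepresses Bmi1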

Row | Compound | AC40 [µM]
1 | COc1cccc(OCc2cc(C(=O)N3CCN(C(C)=O)CC3)no2)c1 | 3.15
2 | CCCNC(=O)Nc1ccc2c(c1)C(=O)N(C)C[C@H](OC)[C@@H](C)CN(Cc1ccc(-c3ccccn3)cc1)[C@@H](C)CO2 | 14.1
3 | O=C(Nc1ccccn1)c1c(O)c2cccc3c2n(c1=O)CCC3 | 18.4
4 | COc1ccc([C@@H](C)NC(=O)c2ccc3oc(C(C)C)nc3c2)cc1 | 9.81
5 | Cc1csc(NC(=O)Nc2ccc(Cl)cc2)n1 | 2.68
6 | COC(=O)c1c(-c2ccc(SC)cc2)sc2ccccc12 | 14.3
7 | O=C(Nc1ccc(F)cc1)NC1CCCCCCC1 | 12
8 | CS(=O)(=O)c1cccc(-c2csc(N3CCC(C(N)=O)CC3)n2)c1 | < 0.26
9 | Cc1cccc(C)c1OCc1cc(C(=O)N2CCC(C3CCCCC3)C2)no1 (stereo not drawn) | 4.72
10 | COc1ccc2c(c1)CC/C(=C/c1ccccn1)C2=O | 1.86
11 | O=C(NCCc1ccccc1)c1cccc(NC(=O)C2CCC2)c1 | 8.75
12 | Cc1csc(NC(=O)Cc2c[nH]c3ccccc23)n1 | 10.2
13 | COc1ccc(C)cc1NCc1cc(=O)oc2cc(-c3ccccc3)c(O)cc12 | 32.4
14 | O=C1/C(=C/c2cccc3ccccc23)CCCc2ccccc21 | 5.34
15 | Clc1ccc(-c2nc3ccc(Cl)cn3c2Cc2ccsc2)cc1 | 9.87
16 | O=C(N/N=C/c1ccccc1)c1ccc(NC(=O)c2ccc(F)cc2)cc1 | 1.46
17 | Cc1cc(Cl)c(O)c(-n2nc3ccccc3n2)c1 | 5.74
18 | Cc1cc(Cl)ccc1OCc1nnc(-c2ccccc2C)o1 | 5.44
19 | C/C(=C\C(=O)c1cccnc1)Nc1ccc(C)c(C)c1 | 3.36
20 | C/C(=N\O)c1ccc2c3ccccc3n(C)c2c1 | 3.32
21 | CC(C)C1CCN(C(=O)C2CCC(=O)N(C3CCCCCC3)C2)CC1 (stereo not drawn) | 9.83
22 | COc1ccc(CNc2nc3ccccc3s2)cc1OC | 3.7
23 | CCCc1cc(C(=O)Nc2cc(Br)ccc2O)no1 | 8.53
24 | CC(=O)N(C)c1nc(-c2ccc(Cl)cc2)cs1 | 5.63
25 | CCN(C(=O)c1cc2c(=O)n3ccccc3nc2s1)C1CCCCC1 | 14

Row | Compound | AC40 [µM]
26 | COc1ccc(-c2csc(C(O)c3ccc(F)cc3)n2)cc1 (stereo not drawn) | 1.54
27 | CCn1c(O)c(/C=C2\C=Nc3ccccc32)sc1=Nc1ccccc1 | 14.2
28 | COc1ccc(Cl)cc1C(=O)NNC(=O)c1cccs1 | 4.75
29 | O=C(O)C=C1CCN(c2ncc(C(F)(F)F)cc2Cl)CC1 | 2.07
30 | N#CCc1nc(CSc2nc3ccccc3o2)cs1 | 12.3
31 | O=C(Nc1cccc2ccccc12)OCc1ccccc1 | 3.96
32 | O=C(NCCc1ccccc1)c1ccc(Cl)c(S(=O)(=O)N2CCCC2)c1 | 8.04
33 | COc1cccc(Nc2cc(C)c3ccccc3n2)c1 | 6.06
34 | Cc1cc(C(=O)Nc2sc(C)c(-c3ccc(F)cc3)c2C(N)=O)no1 | 0.612
35 | COc1ccc(N2CCN(C(=O)c3ccc(Cn4c(=S)[nH]c5ccc(N6CCOCC6)cc5c4=O)cc3)CC2)cc1 | 6.15
36 | COc1ccccc1/C=C/C=N/n1c(-c2ccccn2)n[nH]c1=S | 9.01
37 | Cc1ccnc(NC(=O)c2ccc(Cl)c(S(=O)(=O)N3CCCCC3)c2)c1 | 11.7
38 | COc1ccccc1NC(=O)CSc1nc2sc3c(c2c(=O)n1-c1ccccc1)CCN(C)C3 | 19.1
39 | Cc1ccc(C)c(N2CCN(C(=O)CCc3nc(-c4ccccc4Br)no3)CC2)c1 | 15.8
40 | Cc1cccc(Nc2nc(-c3sc(C)nc3C)cs2)c1 | 2.71
41 | CCCCCn1c(=O)c(C(=O)Nc2ccccc2Cl)c(O)c2ccccc21 | 5.14
42 | CC(C)c1ccc(-c2nn(-c3ccccc3)cc2C2C(C#N)=C(N)OC3=C2C(=O)CC(C)(C)C3)cc1 (stereo not drawn) | 29.1
43 | COc1ccc(N2CCN(C(=O)C3Cc4ccccc4CN3C(=O)c3ccccc3)CC2)cc1 (stereo not drawn) | 16.5
44 | CC1CCc2sc(C(=O)NC3CCCCC3)cc2C1 (stereo not drawn) | 1.08
45 | CN(C)c1ccc(CSc2ccccc2)cc1 | 2.77
46 | Cc1cccc(NC(=O)c2ccccn2)c1C | 3.69
47 | CO[C@@H]1CN(C)C(=O)c2cc(NC(=O)Nc3ccc4c(c3)OCO4)ccc2OC[C@H](C)NC[C@@H]1C | 6.97
48 | COc1cc2ccccc2cc1C(=O)Nc1ccncc1 | 5.2
49 | Cc1ccc(NC(=O)NC(=O)N(c2ccccc2)S(C)(=O)=O)cc1 | 7.14
50 | COc1ccc(C2CC2/C(=N/OC(=O)c2cccs2)c2ccccc2)cc1 (stereo not drawn) | 2.9

Row | Compound | AC40 [µM]
51 | O=C(Nc1ccccc1Cl)NC1CCCCCCC1 | 5.67
52 | N#CCc1ccc(OC(=O)c2cccnc2Cl)cc1 | 15.7
53 | CC(C)(C)NC(=O)Cn1nnc(-c2ccccc2Cl)n1 | 5.29
54 | O=C(CCCc1ccccn1)c1ccc(-c2ccccc2)cc1 | 4.03
55 | CCc1ccc2cc3c(cc2n1)C(=O)c1ccccc1-3 | 2.32
56 | Cc1cc(C)c2nc(N3CCCC(C(=O)NC4CCCC4)C3)sc2c1 (stereo not drawn) | 9.66
57 | Cc1ccc(NC(=O)NC2CCCCCCC2)cc1C | 4.22
58 | Fc1cccc(-c2ncc(-c3ccccc3)o2)c1 | 0.768
59 | COc1nc(Nc2ccc(C(C)C)cc2)nc(OC)n1 | 10.8
60 | CS(=O)(=O)c1ccccc1C(=O)Nc1ccc(-c2nc3ccccc3o2)cc1 | 4.29
61 | Cc1ccc(O)c(NC(=O)c2ccc3c(c2)C(=O)N(CC(C)C)C3=O)c1 | 1.23
62 | Cc1ccc2c(CN(C)Cc3cccc(F)c3)cc(=O)oc2c1 | 2.23
63 | O=C1CCCc2cc3c(ccc4ccccc43)cc21 | 3.18
64 | COc1ccc(NC(=O)c2csc3c2CCCC3)cc1 | 0.459
65 | COc1ccc(/C=N/NC(=O)c2cccs2)c2ccccc12 | 9.35
66 | O=C(Nc1ccc2ccccc2c1)c1cccc2ccccc12 | 0.829
67 | COc1ccc2c(c1OC)C(=O)OC2Nc1nc(-c2cc3cc(Br)ccc3oc2=O)cs1 (stereo not drawn) | 1.25
68 | COc1cc2ccccc2cc1C(=O)NC1CCC(C)CC1 (stereo not drawn) | 8.67
69 | CCCCNC(=O)CSc1nc2ccc(N3CCOCC3)cc2c(=O)n1Cc1ccc(OC)cc1 | 11
70 | COc1ccc(NC(=O)Cc2ccccc2)cc1 | 8.22
71 | NC(=O)c1ccccc1-c1nc(-c2ccccc2)no1 | 4.23
72 | Cc1cccc(Oc2ccc(Cl)cc2N)c1 | 5.77
73 | CN(CCc1ccccn1)C(=O)CCc1nnc(CCCc2ccccc2)o1 | 4.93
74 | COc1ccc(CNC(=O)COc2ccccc2C(=O)c2cnn(-c3ccccc3)c2)cc1OC | 0.642
75 | Cc1cc(N2CCCCC2)nc2ccc(NC(=O)CCC(=O)NCCC(C)C)cc12 | 16.6

Row | Compound | AC40 [µM]
76 | Cc1ccc2[nH]c(C(=O)N3CCCCC3)cc2c1 | 6.79
77 | COc1cccc(NC(=O)c2sc3nc4n(c(=O)c3c2C)CCC4)c1 | 2.73
78 | NC(=O)c1ccc(OCc2ccccc2)nc1 | 5.4
79 | COC(=O)/C(=C1\Oc2ccc(C(C)(C)C)cc2S1)C(F)(F)F | 1.45
80 | COc1ccc(Nc2ncnc3sc(C)cc23)cc1 | 5.43
81 | CN(Cc1nccs1)C(=O)c1ccc2nc(Cc3ccccc3F)oc2c1 | 0.952
82 | CCN1C(=O)C(=CC=CN(C)c2ccccc2)SC1=S | 0.466
83 | COc1ccc(NC(=O)CCC(=O)Nc2ccc3nc(N4CCOCC4)cc(C)c3c2)c(OC)c1 | 6.04
84 | Cc1ccc(O)c(N=Cc2ccc(C)s2)c1 | 25.8
85 | CC(C)(C)C(=O)N1CCN(c2nc3ccc(Br)cc3s2)CC1 | 1.53
86 | COc1cc(C)ccc1OCc1cc(C(=O)N2CCN(C3CCCCC3)CC2)no1 | 5.3
87 | CC(c1ccccc1)c1nnc(NC(=O)Nc2ccccc2F)s1 (stereo not drawn) | 6.51
88 | COc1cc2[nH]c(C(=O)N3CCc4ccccc43)cc2c(OC)c1OC | 2.77
89 | O=C(Nc1ccccc1Cl)c1cc(=O)c2ccccc2o1 | 0.468
90 | COc1ccc(CNc2nc(NCc3ccc(OC)cc3)n(C(=O)c3ccccc3[N+](=O)[O-])n2)cc1 | 18.8
91 | Nc1c(Cl)cc(N=Nc2ccccc2)cc1Cl | 3.27
92 | CCCCSc1nnc(-c2c[nH]c3ccccc23)n1C | 6.69
93 | CC(C)c1ccc(/C=N/NC(=O)CCNC(=O)c2ccccc2)cc1 | 22.8
94 | COc1ccc(NC(=O)c2cc3sccc3n2Cc2ccc(F)cc2)cc1OC | 13.8
95 | Cc1cccc(N2C(=O)CC(N(O)c3ccccc3)C2=O)c1 (stereo not drawn) | 28.4
96 | COc1ccc(-n2nc(C(=O)NCC(=O)N3CCN(c4ccccc4)CC3)c3ccccc3c2=O)cc1OC | 7.98
97 | Cn1cccc1-c1nc2ccc(NC(=O)c3cccs3)cc2[nH]1 | 11.7
98 | O=C1C(=Cc2ccccn2)CCc2ccccc21 | 20.1
99 | O=C(O)c1ccc(O)c2ncccc12 | 1.67
100 | O=C(Nc1cccc2ccccc12)c1cnccn1 | 6.43

Row | Compound | AC40 [µM]
101 | COC(=O)c1ccc2[nH]c(C(C)(C)O)c(C)c2c1 | 1.37
102 | c1ccc2cc(C3CCCCC3)ncc2c1 | 4.49
103 | Oc1ccc(Cl)cc1C=NN1CCCCCC1 | 1.37
104 | NCCNC(=O)c1c(NC(=O)c2ccccc2)sc2c1CCCC2 | 34.4
105 | COc1ccc(NC(=O)c2cc(-c3ccccc3Cl)on2)cc1 | 11.8
106 | O=C(CCNC(=O)c1ccccc1)Nc1nc2ccccc2s1 | 3.91
107 | Cc1ccc(C(=O)Cc2ccccc2)c(O)c1 | 6.34
108 | O=C(NOCc1ccccc1)OCc1ccccc1 | 4.39
109 | Nc1cc2c(cc1Cl)-c1ccc(Cl)cc1C2 | 11.3
110 | COc1cccc(NC(=O)N2CCN(c3cccc(C)c3C)CC2)c1 | 4.88
111 | CC(C)c1ccc(NC(=O)c2cccnc2)cc1 | 2.6
112 | Cc1cc(-c2nnco2)c(C)n1-c1ccccc1 | 6.01
113 | CC/C(=N\NC(=O)c1cc(C2CC2)[nH]n1)c1ccccc1 | 4.25
114 | CCN(C(=O)CN1C(=O)S/C(=C\C=C\c2ccccc2)C1=O)C1CCS(=O)(=O)C1 (stereo not drawn) | 3.85
115 | COc1ccc(C)c2sc(=NC(=O)c3cccc(N4C(=O)CCC4=O)c3)n(C)c12 | 1.81
116 | Cc1ccc(C(=O)Nc2ccc3c(c2)OCO3)cc1S(=O)(=O)N1CCCCC1 | 1.69
117 | Cc1csc(SCCN2C(=O)c3ccccc3C2=O)n1 | 3.17
118 | CC(=O)Nc1ccc(CNc2nc3cc(-c4ccc(F)cc4)sc3c(=O)n2C)cc1 | 1.69
119 | Cn1c(CSc2ccccc2)c(C#N)c2ccccc21 | 6.77
120 | Cc1cc(N2CCOCC2)nc2ccc(NC(=O)CCC(=O)N3CCN(c4ccccc4)CC3)cc12 | 11
121 | CO[C@H]1CN(C)C(=O)c2ccc(NC(=O)Nc3ccc4c(c3)OCO4)cc2OC[C@@H](C)NC[C@@H]1C | 2.76
122 | CCn1c(COc2ccc(OC)cc2)nc2ccccc21 | 2.81
123 | COc1cccc(OCc2cc(C(=O)N(C)Cc3nc4ccccc4[nH]3)no2)c1 | 2.78
